Measured values reported in patent US20060189546A1, “Compounds for treating autoimmune and demyelinating diseases” (priority 2005, published 2006).

System: colorectal cancer cell lines (HT29 & HCT116)
Test: Microarray gene expression, cells grown with Symadex at the GI50 concentration
Type: cell-based, human
Text: Two colorectal cancer cell lines (HT29 & HCT116) were chosen for study, whose behavior as rapidly proliferating invasive cells could be generalized to many other such cell types from different tissue origins. The two lines were immortalized colon carcinomas. Their gene expression patterns are known to mimic the behavior of neuro-enteric cells and therefore provide an appropriate simulation of the kinds of regulatory patterns that would be found in cells of similar epithelial or endothelial origin. Cells with these ontological roots are also suitable models for the kinds of autoimmune and inflammatory susceptibilities that are common in tissues of neuroenteric origin, such as those in which inflammatory bowel disease would present itself.
Frozen cell pellets were lysed in triplicate and total RNA isolated by purification over spin columns (all reagents from Ambion). After QC acceptance for purity, total RNA was converted to cRNA by linear amplification and 10 μg samples were applied to CodeLink Human Whole Genome Bioarrays (GE Healthcare and GenUs Biosystems).
Arrays were processed in triplicate and comparisons made after robust statistical analysis of replicate variability. […] False discovery rates and representation in standardized gene ontologies/pathways were then determined by filtering the “fold” changes in expression with open access software packages, EASE and GoMiner, and with Pathways Analysis (Ingenuity Systems). Functional annotations were then explored further in the MedMiner literature search environment.
A listing of these is shown in Table 3, in which the first column data presents the fold change against control, the second column cites the gene symbol, the third column cites the Genbank Accession, and the fourth column provides an abridged description of the gene's function.

CCN(CC)CCNc1ccc2ncn3c4ccc(O)cc4c(=O)c1c23 [Symadex™, 5-[[(diethylamino)ethyl]amino]-8-hydroxyimidazo[4,5,1-de]-acridine-6-one]
fold down-regulation of SULT4A1: ~300 fold
fold down-regulation of SYNE1: 1500 fold
Mean fold change over control: NT5C3 (AA188573): −2.08
Mean fold change over control: SLC9A7 (AA279477): −8.20
Mean fold change over control: PPP2R5A (AA496141): −36.93
Mean fold change over control: ACYP1 (AA664719): −2.07
Mean fold change over control: PRLR (AA708864): −25.92
Mean fold change over control: UBL4 (AA873769): −10.12
Mean fold change over control: PPP1R9A (AB033048): −26.54
Mean fold change over control: MAP6 (AB058781): −12.89
Mean fold change over control: ASAH2 (AF250847): −2.21
Mean fold change over control: MTIF2 (AI064964): −59.05
Mean fold change over control: NEB (AI079911): −6.89
Mean fold change over control: MGAT4A (AI364966): −10.83
Mean fold change over control: EIF2AK4 (AI630242): −15.24
Mean fold change over control: ATP1B4 (AI659245): −8.24
Mean fold change over control: VAPA (AI671488): −12.46
Mean fold change over control: PAFAH1B1 (AI674778): −12.85
Mean fold change over control: PMPCB (AK090763): −15.36
Mean fold change over control: IL1RAP (AK095107): −11.23
Mean fold change over control: PFKL (AK098228): −10.55
Mean fold change over control: KIF5A (AL118561): −11.04
Mean fold change over control: LNX (AL565198): −87.48
Mean fold change over control: ACTA2 (AL713608): −17.00
Mean fold change over control: DHFR (AU127142): −2.95
Mean fold change over control: SIN3B (AW051366): −2.93
Mean fold change over control: NDUFV3 (AW139027): −10.52
Mean fold change over control: TSFM (AW603708): −2.11
Mean fold change over control: PXN (AW969600): −6.00
Mean fold change over control: PTPRG (BC047734): −18.91
Mean fold change over control: TRA2A (BF093914): −2.55
Mean fold change over control: RPL4 (BF308998): −39.17
Mean fold change over control: PLXNA3 (BF926082): −8.04
Mean fold change over control: ITGA9 (BF959890): −27.91
Mean fold change over control: MT2A (BG505162): −2.09
Mean fold change over control: PECAM1 (BG739826): −17.53
Mean fold change over control: NCF1 (BI021745): −33.67
Mean fold change over control: FNTA (BI715309): −9.02
Mean fold change over control: RB1 (BI769614): −84.42
Mean fold change over control: ENG (BM665467): −6.35
Mean fold change over control: MT1A (BM684446): −16.21
Mean fold change over control: RPS3 (BM693455): −68.37
Mean fold change over control: MAPT (BM714794): −26.53
Mean fold change over control: NT5E (BM994339): −17.10
Mean fold change over control: MXD3 (BQ053282): −2.66
Mean fold change over control: RYR3 (BU533957): −2.43
Mean fold change over control: ZNF145 (BU607554): −30.18
Mean fold change over control: CASR (BX106711): −11.45
Mean fold change over control: EIF4EL3 (BX111619): −15.36
Mean fold change over control: GNAL (BX116836): −18.16
Mean fold change over control: GPR1 (CB992712): −11.49
Mean fold change over control: OLR1 (CD678960): −16.33
Mean fold change over control: TMPO (H57815): −2.64
Mean fold change over control: ACVRL1 (NM_000020): −9.43
Mean fold change over control: AGT (NM_000029): −22.71
Mean fold change over control: APOA1 (NM_000039): −13.15
Mean fold change over control: BLM (NM_000057): −2.58
Mean fold change over control: COL1A2 (NM_000089): −54.48
Mean fold change over control: CYP19A1 (NM_000103): −20.65
Mean fold change over control: FBN1 (NM_000138): −13.00
Mean fold change over control: GIPR (NM_000164): −19.73
Mean fold change over control: GLA (NM_000169): −2.51
Mean fold change over control: SPTB (NM_000347): −16.71
Mean fold change over control: ITGA2B (NM_000419): −10.64
Mean fold change over control: NCF2 (NM_000433): −21.83
Mean fold change over control: OXCT (NM_000436): −2.68
Mean fold change over control: SHOX (NM_000451): −7.34
Mean fold change over control: HNF4A (NM_000457): −7.42
Mean fold change over control: NR0B1 (NM_000475): −15.94
Mean fold change over control: TYRP1 (NM_000550): −12.47
Mean fold change over control: IL13RA2 (NM_000640): −9.79
Mean fold change over control: ADH1C (NM_000669): −12.02
Mean fold change over control: CHRNA5 (NM_000745): −2.14
Mean fold change over control: DCK (NM_000788): −1.94
Mean fold change over control: GABRA3 (NM_000808): −10.14
Mean fold change over control: PRIM1 (NM_000946): −3.47
Mean fold change over control: SCNN1G (NM_001039): −14.52
Mean fold change over control: SLC6A4 (NM_001045): −19.44
Mean fold change over control: ADCYAP1 (NM_001117): −21.74
Mean fold change over control: BIRC5 (NM_001168): −1.91
Mean fold change over control: PRDM1 (NM_001198): −3.78
Mean fold change over control: CSE1L (NM_001316): −2.53
Mean fold change over control: TADA2L (NM_001488): −2.04
Mean fold change over control: HSPB2 (NM_001541): −13.76
Mean fold change over control: BGN (NM_001711): −12.57
Mean fold change over control: CD58 (NM_001779): −2.40
Mean fold change over control: CDC2 (NM_001786): −2.09
Mean fold change over control: CDC25C (NM_001790): −2.99
Mean fold change over control: CKS1B (NM_001826): −2.38
Mean fold change over control: CREM (NM_001881): −2.13
Mean fold change over control: DSC3 (NM_001941): −89.97
Mean fold change over control: DUT (NM_001948): −2.08
Mean fold change over control: FBLN1 (NM_001996): −17.42
Mean fold change over control: FCAR (NM_002000): −11.62
Mean fold change over control: H2AFX (NM_002105): −2.31
Mean fold change over control: H2AFZ (NM_002106): −2.35
Mean fold change over control: HMGB1 (NM_002128): −1.97
Mean fold change over control: HNRPA2B1 (NM_002137): −1.93
Mean fold change over control: IL7R (NM_002185): −25.20
Mean fold change over control: ITGAE (NM_002208): −2.12
Mean fold change over control: KCNJ15 (NM_002243): −6.83
Mean fold change over control: KRT13 (NM_002274): −3.34
Mean fold change over control: LTB (NM_002341): −12.57
Mean fold change over control: MAD2L1 (NM_002358): −3.14
Mean fold change over control: MAZ (NM_002383): −1.89
Mean fold change over control: NUDT1 (NM_002452): −1.89
Mean fold change over control: NDUFA6 (NM_002490): −2.51
Mean fold change over control: NDUFB3 (NM_002491): −15.58
Mean fold change over control: NFKBIB (NM_002503): −2.01
Mean fold change over control: NTHL1 (NM_002528): −2.34
Mean fold change over control: PAFAH1B2 (NM_002572): −2.25
Mean fold change over control: PCSK2 (NM_002594): −16.89
Mean fold change over control: POLE2 (NM_002692): −2.62
Mean fold change over control: MAPK13 (NM_002754): −2.14
Mean fold change over control: RAD51 (NM_002875): −2.21
Mean fold change over control: RFC4 (NM_002916): −2.02
Mean fold change over control: RPA3 (NM_002947): −2.54
Mean fold change over control: SFRS3 (NM_003017): −2.84
Mean fold change over control: ITSN1 (NM_003024): −15.06
Mean fold change over control: SNAI2 (NM_003068): −17.45
Mean fold change over control: SRY (NM_003140): −13.79
Mean fold change over control: TFAP2A (NM_003220): −11.00
Mean fold change over control: TK1 (NM_003258): −2.34
Mean fold change over control: NR2E1 (NM_003269): −54.82
Mean fold change over control: TNP1 (NM_003284): −36.20
Mean fold change over control: TTK (NM_003318): −2.24
Mean fold change over control: VRK1 (NM_003384): −2.79
Mean fold change over control: DEK (NM_003472): −2.36
Mean fold change over control: CSRP3 (NM_003476): −26.26
Mean fold change over control: ZNF282 (NM_003575): −31.24
Mean fold change over control: FOXN1 (NM_003593): −9.60
Mean fold change over control: STK6 (NM_003600): −1.92
Mean fold change over control: SEMA7A (NM_003612): −16.54
Mean fold change over control: HAT1 (NM_003642): −2.63
Mean fold change over control: COPS3 (NM_003653): −2.54
Mean fold change over control: CAMK1 (NM_003656): −1.92
Mean fold change over control: IL1RL1 (NM_003856): −28.60
